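Five concentrations, 48 hours, 96-well plates. GI50: concentration for 50% inhibition of growth. TGI marks complete inhibition of growth.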
Assays:
Assay in all cases: growth of human tumour cells (NCI), 48 h
HOP-62 NSCLC = tested on: HOP-62 NSCLC
SW-620 colon = tested on: SW-620 colon
UO-31 renal = tested on: UO-31 renal
SN12C renal = tested on: SN12C renal
UACC-62 melanoma = tested on: UACC-62 melanoma
EKVX NSCLC = tested on: EKVX NSCLC
MDA-MB-435 = tested on: MDA-MB-435
MOLT-4 leukemia = tested on: MOLT-4 leukemia
OVCAR-3 ovarian = tested on: OVCAR-3 ovarian
OVCAR-8 ovarian = tested on: OVCAR-8 ovarian
NCI-H460 lung = tested on: NCI-H460 lung
MALME-3M melanoma = tested on: MALME-3M melanoma
A549 NSCLC = tested on: A549 NSCLC
786-0 renal = tested on: 786-0 renal
HOP-92 NSCLC = tested on: HOP-92 NSCLC
MDA-MB-231 breast = tested on: MDA-MB-231 breast
HCC-2998 colon = tested on: HCC-2998 colon
SF-539 CNS = tested on: SF-539 CNS
SNB-75 CNS = tested on: SNB-75 CNS
TK-10 renal = tested on: TK-10 renal
DU-145 prostate = tested on: DU-145 prostate
U251 CNS = tested on: U251 CNS
CCRF-CEM leukemia = tested on: CCRF-CEM leukemia
SK-OV-3 ovarian = tested on: SK-OV-3 ovarian
HT29 colon = tested on: HT29 colon
T-47D breast = tested on: T-47D breast
UACC-257 melanoma = tested on: UACC-257 melanoma
NCI-H23 lung = tested on: NCI-H23 lung
HS 578T breast = tested on: HS 578T breast
HCT-15 colon = tested on: HCT-15 colon
NCI-H522 lung = tested on: NCI-H522 lung
LOX IMVI melanoma = tested on: LOX IMVI melanoma
PC-3 prostate = tested on: PC-3 prostate
BT-549 breast = tested on: BT-549 breast
COLO 205 colon = tested on: COLO 205 colon
SK-MEL-2 melanoma = tested on: SK-MEL-2 melanoma
MCF7 breast = tested on: MCF7 breast
SF-295 CNS = tested on: SF-295 CNS
SR leukemia = tested on: SR leukemia
SK-MEL-5 melanoma = tested on: SK-MEL-5 melanoma
SK-MEL-28 melanoma = tested on: SK-MEL-28 melanoma
KM12 colon = tested on: KM12 colon
NCI-H226 lung = tested on: NCI-H226 lung
IGROV1 ovarian = tested on: IGROV1 ovarian
RXF 393 renal = tested on: RXF 393 renal
A498 renal = tested on: A498 renal
SF-268 CNS = tested on: SF-268 CNS
HCT-116 colon = tested on: HCT-116 colon
HL-60(TB) leukemia = tested on: HL-60(TB) leukemia
OVCAR-4 ovarian = tested on: OVCAR-4 ovarian
ACHN renal = tested on: ACHN renal
K-562 leukemia = tested on: K-562 leukemia
RPMI-8226 leukemia = tested on: RPMI-8226 leukemia
NCI/ADR-RES ovarian = tested on: NCI/ADR-RES ovarian
CAKI-1 renal = tested on: CAKI-1 renal
OVCAR-5 ovarian = tested on: OVCAR-5 ovarian
SNB-19 CNS = tested on: SNB-19 CNS
M14 melanoma = tested on: M14 melanoma

Cc1cn(-c2cc(NC(=O)c3cncc(C#Cc4cnc5ccc(O[C@@H]6CCOC6)nn45)c3)cc(C(F)(F)F)c2)cn1
GI50 (HOP-62 NSCLC): 183 nM
TGI (HOP-62 NSCLC): 883 nM
GI50 (SW-620 colon): 157 nM
TGI (SW-620 colon): 557 nM
GI50 (UO-31 renal): 1450 nM
TGI (UO-31 renal): 3.55 µM
GI50 (SN12C renal): 85.6 nM
TGI (SN12C renal): 601 nM
GI50 (UACC-62 melanoma): 204 nM
TGI (UACC-62 melanoma): 949 nM
GI50 (EKVX NSCLC): 257 nM
TGI (EKVX NSCLC): 1270 nM
GI50 (MDA-MB-435): 144 nM
TGI (MDA-MB-435): 714 nM
GI50 (MOLT-4 leukemia): 64.2 nM
TGI (MOLT-4 leukemia): 678 nM
GI50 (OVCAR-3 ovarian): 217 nM
TGI (OVCAR-3 ovarian): 849 nM
GI50 (OVCAR-8 ovarian): 257 nM
TGI (OVCAR-8 ovarian): 1140 nM
GI50 (NCI-H460 lung): 144 nM
TGI (NCI-H460 lung): 699 nM
GI50 (MALME-3M melanoma): 164 nM
TGI (MALME-3M melanoma): 693 nM
GI50 (A549 NSCLC): 206 nM
TGI (A549 NSCLC): 958 nM
GI50 (786-0 renal): 286 nM
TGI (786-0 renal): 936 nM
GI50 (HOP-92 NSCLC): 22.8 nM
TGI (HOP-92 NSCLC): 96.3 nM
GI50 (MDA-MB-231 breast): 74 nM
TGI (MDA-MB-231 breast): 403 nM
GI50 (HCC-2998 colon): 320 nM
TGI (HCC-2998 colon): 1500 nM
GI50 (SF-539 CNS): 39.8 nM
TGI (SF-539 CNS): 231 nM
GI50 (SNB-75 CNS): < 43.6 nM
TGI (SNB-75 CNS): 226 nM
GI50 (TK-10 renal): 362 nM
TGI (TK-10 renal): 1560 nM
GI50 (DU-145 prostate): 222 nM
TGI (DU-145 prostate): 1580 nM
GI50 (U251 CNS): 246 nM
TGI (U251 CNS): 1020 nM
GI50 (CCRF-CEM leukemia): 48.6 nM
GI50 (SK-OV-3 ovarian): 392 nM
TGI (SK-OV-3 ovarian): 2230 nM
GI50 (HT29 colon): 188 nM
TGI (HT29 colon): 947 nM
GI50 (T-47D breast): 442 nM
TGI (T-47D breast): 4.26 µM
GI50 (UACC-257 melanoma): 467 nM
TGI (UACC-257 melanoma): 2750 nM
GI50 (NCI-H23 lung): 190 nM
TGI (NCI-H23 lung): 784 nM
GI50 (HS 578T breast): 124 nM
TGI (HS 578T breast): 559 nM
GI50 (HCT-15 colon): 687 nM
TGI (HCT-15 colon): 2370 nM
GI50 (NCI-H522 lung): 111 nM
TGI (NCI-H522 lung): 330 nM
GI50 (LOX IMVI melanoma): 85.6 nM
TGI (LOX IMVI melanoma): 535 nM
GI50 (PC-3 prostate): 280 nM
TGI (PC-3 prostate): 4.21 µM
GI50 (BT-549 breast): 625 nM
TGI (BT-549 breast): 1730 nM
GI50 (COLO 205 colon): 75.7 nM
TGI (COLO 205 colon): 213 nM
GI50 (SK-MEL-2 melanoma): 210 nM
TGI (SK-MEL-2 melanoma): 512 nM
GI50 (MCF7 breast): 72.9 nM
TGI (MCF7 breast): 717 nM
GI50 (SF-295 CNS): 355 nM
TGI (SF-295 CNS): 2410 nM
GI50 (SR leukemia): 52.7 nM
TGI (SR leukemia): 936 nM
GI50 (SK-MEL-5 melanoma): 615 nM
TGI (SK-MEL-5 melanoma): 1710 nM
GI50 (SK-MEL-28 melanoma): 312 nM
TGI (SK-MEL-28 melanoma): 1090 nM
TGI (KM12 colon): 1790 nM
GI50 (NCI-H226 lung): 56.6 nM
TGI (NCI-H226 lung): 454 nM
GI50 (IGROV1 ovarian): 103 nM
TGI (IGROV1 ovarian): 534 nM
GI50 (RXF 393 renal): 215 nM
TGI (RXF 393 renal): 535 nM
GI50 (A498 renal): 504 nM
TGI (A498 renal): 1090 nM
GI50 (SF-268 CNS): 191 nM
TGI (SF-268 CNS): 1030 nM
GI50 (HCT-116 colon): 79.7 nM
TGI (HCT-116 colon): 616 nM
GI50 (HL-60(TB) leukemia): 181 nM
TGI (HL-60(TB) leukemia): 613 nM
GI50 (OVCAR-4 ovarian): 155 nM
TGI (OVCAR-4 ovarian): 1000 nM
GI50 (ACHN renal): 689 nM
TGI (ACHN renal): 2770 nM
TGI (K-562 leukemia): 3.25 µM
GI50 (RPMI-8226 leukemia): 397 nM
GI50 (NCI/ADR-RES ovarian): 6.46 µM
TGI (NCI/ADR-RES ovarian): 23.1 µM
GI50 (CAKI-1 renal): 495 nM
TGI (CAKI-1 renal): 1510 nM
GI50 (OVCAR-5 ovarian): 268 nM
TGI (OVCAR-5 ovarian): 1670 nM
GI50 (SNB-19 CNS): 261 nM
TGI (SNB-19 CNS): 1750 nM
GI50 (M14 melanoma): 138 nM
TGI (M14 melanoma): 353 nM

— PubChem BioAssay (NCI)
